According to ChEMBL document CHEMBL3286145, “Evaluation of the antiprion activity of 6-aminophenanthridines and related heterocycles” (Eur J Med Chem, 2014):
The source made the active and inactive calls. No cut-off for these calls is given here.

Key:
Saccharomyces cerevisiae [1] = test: Antiprion activity against yeast STRg6 prion protein [PSI+] at 50 nmole by colorimetric assay
Saccharomyces cerevisiae [2] = test: Antiprion activity against yeast SB34 prion protein [URE3] at 50 nmole by colorimetric assay

Compound | antiprion activity (active/not active) (Saccharomyces cerevisiae [1]) | antiprion activity (active/not active) (Saccharomyces cerevisiae [2])
Nc1cccc2c1c(N)nc1ccccc12 | Active | Active
Nc1nc2ccccc2c2cccc([N+](=O)[O-])c12 | Active | Active
Nc1ccc2c(c1)c(N)nc1ccccc12 | Active | inactive
Nc1nc2ccccc2c2ccc(C(F)(F)F)cc12 | Active | Active
Nc1nc2ccc(OC(F)(F)F)cc2c2ccccc12 | Active | inactive
CC[C@H](CO)Nc1nc2ccccc2c2ccccc12 | inactive | inactive
Nc1nc2ccccc2c2cc(F)ccc12 | Active | Active
Nc1nc2ccccc2c2ccc(F)cc12 | Active | Active
CN[S+]([O-])c1ccc2c(N)nc3ccccc3c2c1 (stereo not given) | inactive | inactive
Nc1nc2ncccc2c2ccccc12 | inactive | inactive
Nc1nc2ccncc2c2ccccc12 | inactive | inactive
COc1cc(OC)c2nc(N)c3ccccc3c2c1 | Active | inactive
Nc1nc2ccccc2c2c1CC=CC2 | Active | Active
Cc1ccc2c(N)nc3ccccc3c2c1 | Active | Active
COc1ccc(CCNc2nc3ccccc3c3ccccc23)cc1OC | inactive | inactive
Nc1nc2ccccc2c2c1CCCC2 | Active | Active
Nc1nc2ccccc2c2cnccc12 | inactive | inactive
Cc1ccc2c(N)nc3ccccc3c2n1 | inactive | inactive
Nc1nc2cccnc2c2ccccc12 | inactive | inactive
Cc1ccc2nc(N)c3ccccc3c2c1 | Active | inactive
Nc1nc2ccccc2c2cccc(F)c12 | Active | Active
Nc1nc2ccccc2c2cc([N+](=O)[O-])ccc12 | Active | inactive
[N-]=[N+]=Nc1ccc2c(c1)c(N)nc1ccccc12 | Active | Active
Nc1nc2ccccc2c2ccccc12 | Active | Active
Nc1nc2ccccc2c2ccc([N+](=O)[O-])cc12 | Active | Active
